Laboratory results: US8802597B2, “Herbicidal pyrimidines” (E I du Pont de Nemours and Company, priority 2003, dated 2014)

What was measured:
Assay in all cases: Test C pre/postemergence
Assay type in all cases: in vivo
[1] = test system: Surinam grass (Brachiaria decumbens); details: for Surinam Grass plant response rating: scale 0 to 100 (0 no effect, 100 complete control)
Summary of the method: (§1)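 Percent control is a visual rating (0 none, 100 complete) taken against untreated plants after 12 to 14 days of greenhouse growth. Applications were made preemergence to seeded pots and postemergence to plants at the 1- to 4-leaf stage, in a non-phytotoxic surfactant-containing solvent.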

[2] = test system: cocklebur (Xanthium strumarium); details: for Cocklebur plant response rating: scale 0 to 100 (0 no effect, 100 complete control)
Summary of the method: as §1

[3] = test system: common (oilseed) sunflower (Helianthus annuus); details: Preemergence
Summary of the method: as §1

[4] = test system: crabgrass (Digitaria sanguinalis); details: for Crabgrass plant response rating: scale 0 to 100 (0 no effect, 100 complete control)
Summary of the method: as §1

[5] = test system: giant foxtail (Setaria faberii); details: for Foxtail, Giant plant response rating: scale 0 to 100 (0 no effect, 100 complete control)
Summary of the method: as §1

[6] = test system: johnsongrass (Sorghum halepense); details: for Johnsongrass plant response rating: scale 0 to 100 (0 no effect, 100 complete control)
Summary of the method: as §1

kochia (Kochia scoparia) = details: for Kochia plant response rating: scale 0 to 100 (0 no effect, 100 complete control)
Summary of the method: as §1

[7] = test system: morningglory (Ipomoea coccinea); details: for Morningglory plant response rating: scale 0 to 100 (0 no effect, 100 complete control)
Summary of the method: as §1

[8] = test system: pigweed (Amaranthus retroflexus); details: for Pigweed plant response rating: scale 0 to 100 (0 no effect, 100 complete control)
Summary of the method: as §1

[9] = test system: velvetleaf (Abutilon theophrasti); details: for Velvetleaf plant response rating: scale 0 to 100 (0 no effect, 100 complete control)
Summary of the method: as §1

[10] = test system: woolly cupgrass (Eriochloa villosa); details: for Cupgrass, Woolly plant response rating: scale 0 to 100 (0 no effect, 100 complete control)
Summary of the method: as §1

[11] = test system: yellow nutsedge (Cyperus esculentus); details: for Nutsedge, Yellow plant response rating: scale 0 to 100 (0 no effect, 100 complete control)
Summary of the method: as §1

[12] = Postemergence, 250 g ai/ha, scale 0 to 100
[13] = Postemergence, 500 g ai/ha, scale 0 to 100
[14] = Preemergence, 62 g ai/ha, scale 0 to 100, 0 no effect, 100 complete control
[15] = Preemergence, 125 g ai/ha, scale 0 to 100
[16] = Preemergence, 250 g ai/ha, scale 0 to 100
[17] = Preemergence, 500 g ai/ha, scale 0 to 100

CCCOC(=O)c1nc(C2CC2)nc(N)c1Br [Compound 15]
65: Plant response rating, Surinam Grass [1, 13] | Plant response rating, Surinam Grass [1, 15] | Plant response rating, Cocklebur [2, 14] | Plant response rating, Sunflower ([3]; 62 g ai/ha, scale 0 to 100, 0 no effect, 100 complete control) | Plant response rating, Crabgrass [4, 12] | Plant response rating, Foxtail, Giant [5, 12] | Plant response rating, Foxtail, Giant [5, 16] | Plant response rating, Johnsongrass [6, 15] | Pigweed plant response rating ([8]; Postemergence, 62 g ai/ha) | Velvetleaf plant response rating ([9]; Postemergence, 62 g ai/ha) | Plant response rating, Cupgrass, Woolly [10, 12]
70: Plant response rating, Foxtail, Giant [5, 13] | Plant response rating, Johnsongrass [6, 12] | Pigweed plant response rating ([8]; Postemergence, 125 g ai/ha) | Velvetleaf plant response rating ([9]; Postemergence, 125 g ai/ha)
95: Plant response rating, Surinam Grass [1, 17] | Plant response rating, Crabgrass [4, 15] | Plant response rating, Crabgrass [4, 16] | Plant response rating, Johnsongrass [6, 17] | Kochia plant response rating (kochia (Kochia scoparia); Postemergence, 62 g ai/ha) | Kochia plant response rating (kochia (Kochia scoparia); Postemergence, 125 g ai/ha) | Plant response rating, Kochia (kochia (Kochia scoparia); [14]) | Morningglory plant response rating ([7]; Postemergence, 125 g ai/ha) | Plant response rating, Morningglory [7, 14] | Plant response rating, Velvetleaf [9, 15] | Plant response rating, Cupgrass, Woolly [10, 17]
80: Plant response rating, Crabgrass [4, 13] | Plant response rating, Foxtail, Giant [5, 17] | Plant response rating, Johnsongrass [6, 13] | Plant response rating, Velvetleaf [9, 14]
60: Foxtail, Giant plant response rating ([5]; Postemergence, 125 g ai/ha)
50: Cupgrass, Woolly plant response rating ([10]; Postemergence, 125 g ai/ha)
15: Plant response rating, Surinam Grass [1, 14] | Crabgrass plant response rating ([4]; Postemergence, 62 g ai/ha)
0: Surinam Grass plant response rating ([1]; Postemergence, 62 g ai/ha) | Plant response rating, Crabgrass [4, 14] | Plant response rating, Foxtail, Giant [5, 14] | Plant response rating, Foxtail, Giant [5, 15] | Cupgrass, Woolly plant response rating ([10]; Postemergence, 62 g ai/ha) | Plant response rating, Cupgrass, Woolly [10, 14] | Nutsedge, Yellow plant response rating ([11]; Postemergence, 62 g ai/ha) | Nutsedge, Yellow plant response rating ([11]; Postemergence, 125 g ai/ha) | Plant response rating, Nutsedge, Yellow [11, 12] | Plant response rating, Nutsedge, Yellow [11, 13] | Plant response rating, Nutsedge, Yellow [11, 14] | Plant response rating, Nutsedge, Yellow [11, 15] | Plant response rating, Nutsedge, Yellow [11, 16]
75: Plant response rating, Surinam Grass [1, 16] | Plant response rating, Johnsongrass [6, 16] | Plant response rating, Cupgrass, Woolly [10, 13]
90: Plant response rating, Cocklebur [2, 15] | Morningglory plant response rating ([7]; Postemergence, 62 g ai/ha) | Plant response rating, Pigweed [8, 14] | Plant response rating, Velvetleaf [9, 13]
85: Cocklebur plant response rating ([2]; Postemergence, 62 g ai/ha) | Plant response rating, Pigweed [8, 12] | Plant response rating, Velvetleaf [9, 12] | Plant response rating, Cupgrass, Woolly [10, 16]
100: Cocklebur plant response rating ([2]; Postemergence, 125 g ai/ha) | Plant response rating, Cocklebur [2, 12] | Plant response rating, Cocklebur [2, 13] | Plant response rating, Cocklebur [2, 16] | Plant response rating, Cocklebur [2, 17] | Plant response rating, Sunflower ([3]; 125 g ai/ha, scale 0 to 100) | Plant response rating, Sunflower ([3]; 250 g ai/ha, scale 0 to 100) | Plant response rating, Sunflower ([3]; 500 g ai/ha, scale 0 to 100) | Plant response rating, Crabgrass [4, 17] | Plant response rating, Kochia (kochia (Kochia scoparia); [12]) | Plant response rating, Kochia (kochia (Kochia scoparia); [13]) | Plant response rating, Kochia (kochia (Kochia scoparia); [15]) | Plant response rating, Kochia (kochia (Kochia scoparia); [16]) | Plant response rating, Kochia (kochia (Kochia scoparia); [17]) | Plant response rating, Morningglory [7, 12] | Plant response rating, Morningglory [7, 13] | Plant response rating, Morningglory [7, 15] | Plant response rating, Morningglory [7, 16] | Plant response rating, Morningglory [7, 17] | Plant response rating, Pigweed [8, 13] | Plant response rating, Pigweed [8, 15] | Plant response rating, Pigweed [8, 16] | Plant response rating, Pigweed [8, 17] | Plant response rating, Velvetleaf [9, 16] | Plant response rating, Velvetleaf [9, 17]
45: Crabgrass plant response rating ([4]; Postemergence, 125 g ai/ha) | Foxtail, Giant plant response rating ([5]; Postemergence, 62 g ai/ha)
55: Plant response rating, Surinam Grass [1, 12] | Johnsongrass plant response rating ([6]; Postemergence, 125 g ai/ha)
20: Surinam Grass plant response rating ([1]; Postemergence, 125 g ai/ha) | Johnsongrass plant response rating ([6]; Postemergence, 62 g ai/ha) | Plant response rating, Johnsongrass [6, 14] | Plant response rating, Cupgrass, Woolly [10, 15] | Plant response rating, Nutsedge, Yellow [11, 17]
